Measurements: patent US20220088016A1, “CANCER TREATMENT USING MULTI-TARGETED KINASE INHIBITOR IN COMBINATION OF PROTEIN KINASE BIOMARKERS” (ZHEJIANG CROWNMAB BIOTECH CO. LTD., priority 2019, published 2022)

Tests used:
[1] = target: ABL1 (E255K)-phosphorylated (Homo sapiens, UniProt P00519, E255K); assay: Kinase profiling; format: binding; details: read-out: % Ctrl @ 1000 nM
[2] = target: ABL1 (F317L)-phosphorylated (Homo sapiens, UniProt P00519, F317L); assay: Kinase profiling; format: binding; details: read-out: % Ctrl @ 1000 nM
[3] = target: ABL1 (T315I)-phosphorylated (Homo sapiens, UniProt P00519, T315I); assay: Kinase profiling; format: binding; details: read-out: % Ctrl @ 1000 nM
AKT1 = AKT1 (Homo sapiens, UniProt P31749); assay: Kinase profiling; format: binding; details: read-out: % Ctrl @ 1000 nM
CAMK1B = CAMK1B (Homo sapiens, UniProt Q6P2M8); assay: Kinase profiling; format: binding; details: read-out: % Ctrl @ 1000 nM
CAMK4 = CAMK4 (Homo sapiens, UniProt Q16566); assay: Kinase profiling; format: binding; details: read-out: % Ctrl @ 1000 nM
CAMK4, sequence (Q16566 whole entry): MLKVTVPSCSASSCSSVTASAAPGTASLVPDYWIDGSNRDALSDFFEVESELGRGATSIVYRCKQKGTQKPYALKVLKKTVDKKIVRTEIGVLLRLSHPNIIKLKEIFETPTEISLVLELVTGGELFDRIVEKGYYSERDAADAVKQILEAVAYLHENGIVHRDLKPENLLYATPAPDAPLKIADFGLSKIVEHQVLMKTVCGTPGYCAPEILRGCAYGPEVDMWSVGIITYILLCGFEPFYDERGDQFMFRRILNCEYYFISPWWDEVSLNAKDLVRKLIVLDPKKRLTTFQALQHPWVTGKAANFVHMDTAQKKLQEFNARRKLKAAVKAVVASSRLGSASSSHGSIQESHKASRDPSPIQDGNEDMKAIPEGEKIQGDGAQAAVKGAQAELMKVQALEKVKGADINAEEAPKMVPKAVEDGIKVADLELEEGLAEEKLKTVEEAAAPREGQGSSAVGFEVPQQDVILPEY

CDC2L1 = CDC2L1 (Homo sapiens, UniProt P21127); assay: Kinase profiling; format: binding; details: read-out: % Ctrl @ 1000 nM
CDC2L1, sequence (P21127 whole entry): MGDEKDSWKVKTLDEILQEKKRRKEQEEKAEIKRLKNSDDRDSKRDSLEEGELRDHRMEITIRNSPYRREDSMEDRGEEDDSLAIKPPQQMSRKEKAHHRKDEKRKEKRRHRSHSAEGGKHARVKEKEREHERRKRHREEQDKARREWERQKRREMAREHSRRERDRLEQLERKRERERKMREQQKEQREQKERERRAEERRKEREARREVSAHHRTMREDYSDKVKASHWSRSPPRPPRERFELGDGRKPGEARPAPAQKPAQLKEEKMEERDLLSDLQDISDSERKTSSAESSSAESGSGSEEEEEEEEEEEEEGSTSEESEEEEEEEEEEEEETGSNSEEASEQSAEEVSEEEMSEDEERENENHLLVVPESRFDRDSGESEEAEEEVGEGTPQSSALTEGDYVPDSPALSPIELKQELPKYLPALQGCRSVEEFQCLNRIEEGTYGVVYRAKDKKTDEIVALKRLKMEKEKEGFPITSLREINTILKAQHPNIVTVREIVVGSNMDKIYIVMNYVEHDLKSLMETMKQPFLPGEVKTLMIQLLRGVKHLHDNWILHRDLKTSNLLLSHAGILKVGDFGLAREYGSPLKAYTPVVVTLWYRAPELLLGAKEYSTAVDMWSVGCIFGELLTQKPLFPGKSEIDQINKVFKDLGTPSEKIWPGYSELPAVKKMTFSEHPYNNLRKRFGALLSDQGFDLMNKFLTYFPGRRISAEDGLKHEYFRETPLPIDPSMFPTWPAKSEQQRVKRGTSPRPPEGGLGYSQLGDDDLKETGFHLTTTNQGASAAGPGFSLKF

CSF1R-autoinhibited = CSF1R-autoinhibited (Homo sapiens, UniProt P07333); assay: Kinase profiling; format: binding; details: read-out: % Ctrl @ 1000 nM
CSF1R-autoinhibited, sequence (P07333 20-972): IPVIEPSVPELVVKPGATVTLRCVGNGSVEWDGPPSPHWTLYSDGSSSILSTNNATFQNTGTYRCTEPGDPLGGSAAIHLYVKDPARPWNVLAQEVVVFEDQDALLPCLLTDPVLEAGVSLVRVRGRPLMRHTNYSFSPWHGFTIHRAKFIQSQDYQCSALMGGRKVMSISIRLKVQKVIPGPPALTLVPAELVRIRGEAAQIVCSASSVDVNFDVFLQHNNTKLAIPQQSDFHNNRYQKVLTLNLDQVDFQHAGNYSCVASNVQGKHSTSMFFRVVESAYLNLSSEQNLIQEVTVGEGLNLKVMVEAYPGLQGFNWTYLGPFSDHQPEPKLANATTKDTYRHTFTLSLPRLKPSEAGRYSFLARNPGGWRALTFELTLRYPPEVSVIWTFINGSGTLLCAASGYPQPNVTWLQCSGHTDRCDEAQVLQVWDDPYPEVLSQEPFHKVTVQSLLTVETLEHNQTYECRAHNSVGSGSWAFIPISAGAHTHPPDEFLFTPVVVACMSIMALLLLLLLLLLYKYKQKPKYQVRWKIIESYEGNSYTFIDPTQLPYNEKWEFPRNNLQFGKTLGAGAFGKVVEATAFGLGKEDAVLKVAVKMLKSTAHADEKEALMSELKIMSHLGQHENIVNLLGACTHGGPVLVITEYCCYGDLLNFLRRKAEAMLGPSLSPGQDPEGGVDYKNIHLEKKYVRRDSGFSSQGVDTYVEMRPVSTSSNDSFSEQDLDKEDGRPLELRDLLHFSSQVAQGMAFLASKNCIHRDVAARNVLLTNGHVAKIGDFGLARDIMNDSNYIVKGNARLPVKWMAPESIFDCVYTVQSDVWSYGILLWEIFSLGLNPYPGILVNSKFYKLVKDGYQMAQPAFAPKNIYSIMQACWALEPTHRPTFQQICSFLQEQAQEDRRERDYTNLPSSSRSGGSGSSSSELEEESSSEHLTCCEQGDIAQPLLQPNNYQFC

CSNK1D = CSNK1D (Homo sapiens, UniProt P48730); assay: Kinase profiling; format: binding; details: read-out: % Ctrl @ 1000 nM
DAPK1 = DAPK1 (Homo sapiens, UniProt P53355); assay: Kinase profiling; format: binding; details: read-out: % Ctrl @ 1000 nM
DAPK1, sequence (P53355 whole entry): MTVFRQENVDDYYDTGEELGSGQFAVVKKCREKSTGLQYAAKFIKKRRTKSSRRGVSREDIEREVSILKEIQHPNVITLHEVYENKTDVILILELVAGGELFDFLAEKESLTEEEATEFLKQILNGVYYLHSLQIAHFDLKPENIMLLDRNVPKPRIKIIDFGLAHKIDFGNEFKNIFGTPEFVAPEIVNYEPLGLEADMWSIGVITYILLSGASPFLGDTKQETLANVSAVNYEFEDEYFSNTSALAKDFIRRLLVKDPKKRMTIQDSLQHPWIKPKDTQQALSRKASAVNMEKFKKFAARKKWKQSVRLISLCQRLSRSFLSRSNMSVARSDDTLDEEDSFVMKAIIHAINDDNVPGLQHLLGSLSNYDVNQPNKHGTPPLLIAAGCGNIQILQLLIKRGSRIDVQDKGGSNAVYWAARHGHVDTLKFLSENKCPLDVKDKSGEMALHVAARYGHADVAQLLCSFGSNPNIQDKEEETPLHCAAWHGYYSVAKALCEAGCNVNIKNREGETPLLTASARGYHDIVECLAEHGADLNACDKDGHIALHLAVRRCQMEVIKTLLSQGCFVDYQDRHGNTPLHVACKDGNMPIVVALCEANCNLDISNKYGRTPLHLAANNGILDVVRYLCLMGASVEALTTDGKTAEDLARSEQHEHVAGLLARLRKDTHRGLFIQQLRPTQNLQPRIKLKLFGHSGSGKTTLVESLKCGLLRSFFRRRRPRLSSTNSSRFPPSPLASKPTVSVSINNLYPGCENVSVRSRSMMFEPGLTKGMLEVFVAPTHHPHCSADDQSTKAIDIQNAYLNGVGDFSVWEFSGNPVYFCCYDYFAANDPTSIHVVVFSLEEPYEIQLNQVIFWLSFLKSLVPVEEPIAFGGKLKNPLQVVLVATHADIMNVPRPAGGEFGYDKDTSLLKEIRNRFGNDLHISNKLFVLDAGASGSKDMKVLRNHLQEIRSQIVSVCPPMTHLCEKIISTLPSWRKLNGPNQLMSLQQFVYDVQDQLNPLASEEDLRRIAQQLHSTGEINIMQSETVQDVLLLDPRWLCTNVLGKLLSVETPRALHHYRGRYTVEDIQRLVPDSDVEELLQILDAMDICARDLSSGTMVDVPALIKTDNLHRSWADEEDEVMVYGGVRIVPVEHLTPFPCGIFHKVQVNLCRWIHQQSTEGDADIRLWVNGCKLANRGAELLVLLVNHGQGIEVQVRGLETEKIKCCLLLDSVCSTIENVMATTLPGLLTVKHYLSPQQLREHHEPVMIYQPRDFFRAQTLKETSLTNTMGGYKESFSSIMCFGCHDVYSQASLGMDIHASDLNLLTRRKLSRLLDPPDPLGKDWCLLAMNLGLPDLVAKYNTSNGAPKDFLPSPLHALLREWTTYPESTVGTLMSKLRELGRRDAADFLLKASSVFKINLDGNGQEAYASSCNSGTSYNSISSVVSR

DMPK2 = DMPK2 (Homo sapiens, UniProt Q6DT37); assay: Kinase profiling; format: binding; details: read-out: % Ctrl @ 1000 nM
EGFR (E746-A750del) = EGFR (E746-A750del) (Homo sapiens, UniProt P00533, DEL746-750); assay: Kinase profiling; format: binding; details: read-out: % Ctrl @ 1000 nM
[4] = target: EGFR (L747-T751del, Sins) (Homo sapiens, UniProt P00533, DEL747-750/T751S); assay: Kinase profiling; format: binding; details: read-out: % Ctrl @ 1000 nM
EPHB6 = EPHB6 (Homo sapiens, UniProt O15197); assay: Kinase profiling; format: binding; details: read-out: % Ctrl @ 1000 nM
ERK2 = ERK2 (Homo sapiens, UniProt P28482); assay: Kinase profiling; format: binding; details: read-out: % Ctrl @ 1000 nM
FAK = FAK (Homo sapiens, UniProt Q05397); assay: Kinase profiling; format: binding; details: read-out: % Ctrl @ 1000 nM
FLT3 (N841I) = FLT3 (N841I) (Homo sapiens, UniProt P36888, N841I); assay: Kinase profiling; format: binding; details: read-out: % Ctrl @ 1000 nM
FRK = FRK (Homo sapiens, UniProt P42685); assay: Kinase profiling; format: binding; details: read-out: % Ctrl @ 1000 nM
HASPIN = HASPIN (Homo sapiens, UniProt Q8TF76); assay: Kinase profiling; format: binding; details: read-out: % Ctrl @ 1000 nM
KIT (L576P) = KIT (L576P) (Homo sapiens, UniProt P10721, L576P); assay: Kinase profiling; format: binding; details: read-out: % Ctrl @ 1000 nM
MAP3K15 = MAP3K15 (Homo sapiens, UniProt Q6ZN16); assay: Kinase profiling; format: binding; details: read-out: % Ctrl @ 1000 nM
MERTK = target: T1, MERTK (Homo sapiens, UniProt Q12866); assay: Kinase profiling; format: binding; details: read-out: % Ctrl @ 1000 nM
T1 construct: T7 phage fusion (stated for most kinases of the panel only); made in house; host or cells: T7 phage in E. coli (BL21-derived) or HEK-293 cells

MKNK1 = target: T2, MKNK1 (Homo sapiens, UniProt Q9BUB5); assay: Kinase profiling; format: binding; details: read-out: % Ctrl @ 1000 nM
T2 construct: T7 phage fusion (stated for most kinases of the panel only); made in house; host or cells: T7 phage in E. coli (BL21-derived) or HEK-293 cells
T2 sequence (Q9BUB5 whole entry, the tested form may be a part): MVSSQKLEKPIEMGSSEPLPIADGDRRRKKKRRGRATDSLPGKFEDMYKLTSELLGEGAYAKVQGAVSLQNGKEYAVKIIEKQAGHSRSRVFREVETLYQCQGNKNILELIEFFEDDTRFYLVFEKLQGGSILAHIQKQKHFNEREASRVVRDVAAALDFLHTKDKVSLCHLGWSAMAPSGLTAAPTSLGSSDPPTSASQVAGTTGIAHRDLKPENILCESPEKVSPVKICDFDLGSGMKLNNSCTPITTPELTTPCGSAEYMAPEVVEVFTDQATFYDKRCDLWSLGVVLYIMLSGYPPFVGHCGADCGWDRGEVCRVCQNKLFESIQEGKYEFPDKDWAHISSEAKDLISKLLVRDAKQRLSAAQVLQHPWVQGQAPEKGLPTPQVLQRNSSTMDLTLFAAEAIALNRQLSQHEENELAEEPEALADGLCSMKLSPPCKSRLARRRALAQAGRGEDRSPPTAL

MST3 = target: T3, MST3 (Homo sapiens, UniProt Q9Y6E0); assay: Kinase profiling; format: binding; details: read-out: % Ctrl @ 1000 nM
T3 construct: T7 phage fusion (said for most assays); made in house

PAK1 = PAK1 (Homo sapiens, UniProt Q13153); assay: Kinase profiling; format: binding; details: read-out: % Ctrl @ 1000 nM
PCTK1 = PCTK1 (Homo sapiens, UniProt Q00536); assay: Kinase profiling; format: binding; details: read-out: % Ctrl @ 1000 nM
PKAC-beta = PKAC-beta (Homo sapiens, UniProt P22694); assay: Kinase profiling; format: binding; details: read-out: % Ctrl @ 1000 nM
RIOK2 = RIOK2 (Homo sapiens, UniProt Q9BVS4); assay: Kinase profiling; format: binding; details: read-out: % Ctrl @ 1000 nM
SGK2 = SGK2 (Homo sapiens, UniProt Q9HBY8); assay: Kinase profiling; format: binding; details: read-out: % Ctrl @ 1000 nM
STK33 = STK33 (Homo sapiens, UniProt Q9BYT3); assay: Kinase profiling; format: binding; details: read-out: % Ctrl @ 1000 nM
TIE1 = TIE1 (Homo sapiens, UniProt P35590); assay: Kinase profiling; format: binding; details: read-out: % Ctrl @ 1000 nM
TLK1 = TLK1 (Homo sapiens, UniProt Q9UKI8); assay: Kinase profiling; format: binding; details: read-out: % Ctrl @ 1000 nM
TLK1, sequence (Q9UKI8 whole entry): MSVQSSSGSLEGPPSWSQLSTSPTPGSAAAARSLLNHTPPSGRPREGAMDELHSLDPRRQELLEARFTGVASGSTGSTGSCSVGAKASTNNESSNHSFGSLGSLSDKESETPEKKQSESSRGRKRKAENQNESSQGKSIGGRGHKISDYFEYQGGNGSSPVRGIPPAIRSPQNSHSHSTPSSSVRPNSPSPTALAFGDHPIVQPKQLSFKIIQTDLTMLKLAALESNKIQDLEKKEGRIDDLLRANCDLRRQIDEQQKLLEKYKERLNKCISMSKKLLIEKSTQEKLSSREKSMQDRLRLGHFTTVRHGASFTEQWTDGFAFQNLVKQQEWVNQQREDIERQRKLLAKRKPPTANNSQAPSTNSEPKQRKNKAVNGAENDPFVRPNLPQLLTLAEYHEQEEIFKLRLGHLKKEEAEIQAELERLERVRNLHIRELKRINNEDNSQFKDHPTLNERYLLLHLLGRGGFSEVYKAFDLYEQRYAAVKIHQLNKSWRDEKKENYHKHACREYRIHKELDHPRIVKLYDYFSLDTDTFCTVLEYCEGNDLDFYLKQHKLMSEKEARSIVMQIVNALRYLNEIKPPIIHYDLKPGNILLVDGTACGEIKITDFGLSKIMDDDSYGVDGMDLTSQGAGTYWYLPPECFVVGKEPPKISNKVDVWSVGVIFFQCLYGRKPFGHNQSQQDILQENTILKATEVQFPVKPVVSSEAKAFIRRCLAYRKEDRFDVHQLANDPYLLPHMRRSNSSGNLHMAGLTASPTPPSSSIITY

TNK1 = TNK1 (Homo sapiens, UniProt Q13470); assay: Kinase profiling; format: binding; details: read-out: % Ctrl @ 1000 nM
YSK1 = YSK1 (Homo sapiens, UniProt O00506); assay: Kinase profiling; format: binding; details: read-out: % Ctrl @ 1000 nM
M-NFS-60 cells = assay: Proliferation of M-NFS-60 cells (CTG assay); format: cell-based, mouse; details: M-NFS-60 (CSF-1 dependent), 3 days
Description: Two syngeneic cell lines M-NFS-60 and RAW264.7 and engineered BaF3 hCSFIR cell line were starved and then tested with CBT-102 and other test articles for 3 days in the temperature of 37° C., 5% CO2 and 95% humidity. The cell viability was then detected using CTG assay. The software of GraphPad Prism was used to calculate IC50.
CSF-1 dependent mouse myeloid M-NFS-60 cells were employed as target cells while a CSF-1 independent cell line Raw 264.7 was used as a negative control. In addition to CBT-102, the study also included 3 CSF-1R inhibitors: GW2580, BLZ945 and Pexidartinib.

Structure (SMILES): Cc1cc(Oc2cc(NC(=O)C3CC3)ncn2)ccc1NC(=O)Nc1ccc(Cl)c(C(F)(F)F)c1 [CBT-102]
- remaining activity at 1 µM [1]: 92%
- remaining activity at 1 µM [2]: 52%
- remaining activity at 1 µM [3]: 51%
- remaining activity at 1 µM (AKT1): 100%
- remaining activity at 1 µM (CAMK1B): 98%
- remaining activity at 1 µM (CAMK4): 100%
- remaining activity at 1 µM (CDC2L1): 36%
- remaining activity at 1 µM (CSF1R-autoinhibited): 60%
- remaining activity at 1 µM (CSNK1D): 77%
- remaining activity at 1 µM (DAPK1): 98%
- remaining activity at 1 µM (DMPK2): 100%
- remaining activity at 1 µM (EGFR (E746-A750del)): 95%
- remaining activity at 1 µM [4]: 88%
- remaining activity at 1 µM (EPHB6): 14%
- remaining activity at 1 µM (ERK2): 97%
- remaining activity at 1 µM (FAK): 86%
- remaining activity at 1 µM (FLT3 (N841I)): 0%
- remaining activity at 1 µM (FRK): 6.1%
- remaining activity at 1 µM (HASPIN): 81%
- remaining activity at 1 µM (KIT (L576P)): 0%
- remaining activity at 1 µM (MAP3K15): 99%
- remaining activity at 1 µM (MERTK): 23%
- remaining activity at 1 µM (MKNK1): 100%
- remaining activity at 1 µM (MST3): 89%
- remaining activity at 1 µM (PAK1): 100%
- remaining activity at 1 µM (PCTK1): 88%
- remaining activity at 1 µM (PKAC-beta): 95%
- remaining activity at 1 µM (RIOK2): 92%
- remaining activity at 1 µM (SGK2): 92%
- remaining activity at 1 µM (STK33): 63%
- remaining activity at 1 µM (TIE1): 20%
- remaining activity at 1 µM (TLK1): 100%
- remaining activity at 1 µM (TNK1): 52%
- remaining activity at 1 µM (YSK1): 100%
- IC50 (M-NFS-60 cells): 343 nM
- IC50 (M-NFS-60 cells; Mus musculus, 72 h): 631 nM
